{"source": "patent US12685726B2", "about": "“Sulfoximines as inhibitors of NaV1.8” (Gruenenthal GmbH, priority 2022, dated 2026)", "target": "T1, human NaV 1.8 (Homo sapiens, UniProt Q9Y5Y9)", "T1 construct": "expressed in transfected cells; host or cells: HEK (recombinant cell line)", "T1 sequence (Q9Y5Y9 whole entry)": "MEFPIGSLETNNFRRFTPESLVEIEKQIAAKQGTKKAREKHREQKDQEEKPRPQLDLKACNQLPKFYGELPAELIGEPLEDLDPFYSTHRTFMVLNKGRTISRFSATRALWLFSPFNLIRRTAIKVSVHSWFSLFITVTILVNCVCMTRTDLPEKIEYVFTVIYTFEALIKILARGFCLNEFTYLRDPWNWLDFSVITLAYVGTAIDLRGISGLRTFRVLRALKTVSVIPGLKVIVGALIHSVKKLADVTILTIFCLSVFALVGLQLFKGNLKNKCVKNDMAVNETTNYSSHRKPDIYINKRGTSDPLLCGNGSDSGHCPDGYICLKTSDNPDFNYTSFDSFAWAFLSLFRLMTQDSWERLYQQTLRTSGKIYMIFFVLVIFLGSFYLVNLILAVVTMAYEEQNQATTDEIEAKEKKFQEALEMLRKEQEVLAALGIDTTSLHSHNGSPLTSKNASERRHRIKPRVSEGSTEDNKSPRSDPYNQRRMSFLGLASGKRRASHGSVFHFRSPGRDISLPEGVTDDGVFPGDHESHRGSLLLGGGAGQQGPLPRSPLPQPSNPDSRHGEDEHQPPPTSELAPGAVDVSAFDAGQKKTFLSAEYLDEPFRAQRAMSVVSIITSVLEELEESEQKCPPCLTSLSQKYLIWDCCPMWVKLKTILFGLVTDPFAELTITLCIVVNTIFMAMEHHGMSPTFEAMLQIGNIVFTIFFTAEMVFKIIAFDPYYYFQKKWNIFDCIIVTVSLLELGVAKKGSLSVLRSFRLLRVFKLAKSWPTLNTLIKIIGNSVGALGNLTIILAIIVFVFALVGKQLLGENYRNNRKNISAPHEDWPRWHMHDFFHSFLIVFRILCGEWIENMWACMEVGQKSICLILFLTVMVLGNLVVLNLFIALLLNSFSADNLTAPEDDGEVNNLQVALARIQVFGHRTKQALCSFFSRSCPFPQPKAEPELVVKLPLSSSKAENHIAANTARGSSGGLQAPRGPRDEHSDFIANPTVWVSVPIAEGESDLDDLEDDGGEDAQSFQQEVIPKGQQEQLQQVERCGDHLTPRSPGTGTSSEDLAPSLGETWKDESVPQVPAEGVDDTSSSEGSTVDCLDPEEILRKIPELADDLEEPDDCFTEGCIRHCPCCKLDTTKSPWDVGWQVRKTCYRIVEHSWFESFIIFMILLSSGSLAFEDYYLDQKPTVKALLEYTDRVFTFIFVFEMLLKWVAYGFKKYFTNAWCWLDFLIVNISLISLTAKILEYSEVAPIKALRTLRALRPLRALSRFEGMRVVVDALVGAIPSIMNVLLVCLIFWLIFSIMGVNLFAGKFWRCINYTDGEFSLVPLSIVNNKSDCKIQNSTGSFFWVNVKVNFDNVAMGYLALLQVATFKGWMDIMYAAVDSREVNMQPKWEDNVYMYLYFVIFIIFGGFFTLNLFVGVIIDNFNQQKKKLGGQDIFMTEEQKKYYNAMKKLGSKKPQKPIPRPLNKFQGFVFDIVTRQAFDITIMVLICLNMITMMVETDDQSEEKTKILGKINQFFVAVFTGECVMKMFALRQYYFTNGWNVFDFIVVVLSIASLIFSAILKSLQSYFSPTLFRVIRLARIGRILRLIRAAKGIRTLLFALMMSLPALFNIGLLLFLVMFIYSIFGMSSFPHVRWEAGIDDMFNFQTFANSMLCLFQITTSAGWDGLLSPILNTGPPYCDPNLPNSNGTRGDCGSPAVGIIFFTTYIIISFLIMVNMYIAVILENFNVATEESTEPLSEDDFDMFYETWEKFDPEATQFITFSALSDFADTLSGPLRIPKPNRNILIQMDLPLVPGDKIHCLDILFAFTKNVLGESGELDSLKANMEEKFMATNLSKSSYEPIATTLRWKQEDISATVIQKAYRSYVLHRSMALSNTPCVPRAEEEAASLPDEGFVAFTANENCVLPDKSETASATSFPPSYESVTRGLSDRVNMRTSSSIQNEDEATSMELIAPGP", "assay": "Automated whole-cell patch clamp (Qube384) voltage-clamp recordings of sodium currents in HEK-NaV1.8 cell line", "assay_type": "cell-based", "conditions": "read-out: Potency category (human NaV 1.8 IC50)", "method_in_brief": "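HEK cells expressing NaV1.8 with b3, whole-cell automated voltage clamp at room temperature or 19° C.; CsF-based internal, pH 7.4 external. State-dependent (−120 mV, V1/2 4 s, −10 mV test pulses) and 10/20 Hz 40-pulse protocols; ~12 min compound, vehicle-corrected, IC50 by 4-parameter logistic fit.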", "data": [{"smiles": "CC1(Cn2nc(C3(F)CC3)c(C(F)(F)F)c2C(=O)Nc2cccc([S@@](C)(=O)=NC(=O)CO)c2)CC(F)(F)C1", "note": "[Example 151a]", "values": [{"measurement": "IC50", "value": "≤ 100", "unit": "nM"}]}, {"smiles": "CC1(Cn2nc(C3CC34CC4)c(C(F)(F)F)c2C(=O)Nc2ccnc(S(C)(=N)=O)c2)CC(F)(F)C1", "note": "(single isomer, unassigned) [Example 64a, 1-((3,3-difluoro-1-methylcyclobutyl)methyl)-N-(2-(S-methylsulfonimidoyl)pyridin-4-yl)-3-(spiro[2.2]pentan-1-yl)-4-(trifluoromethyl)-1H-pyrazole-5-carboxamide]", "values": [{"measurement": "IC50", "value": "≤ 100", "unit": "nM"}]}, {"smiles": "CC1(Cn2nc(C3CC4(CC4)C3)c(C(F)(F)F)c2C(=O)Nc2ccnc(S(C)(=N)=O)c2)CC(F)(F)C1", "note": "(single isomer, unassigned) [Example 61b, 1-((3,3-Difluoro-1-methylcyclobutyl)methyl)-N-(2-(S-methylsulfonimidoyl)pyridin-4-yl)-3-(spiro[2.3]hexan-5-yl)-4-(trifluoromethyl)-1H-pyrazole-5-carboxamide]", "values": [{"measurement": "IC50", "value": "≤ 100", "unit": "nM"}]}, {"smiles": "CC1(Cn2nc(C3(F)CC3)c(C(F)(F)F)c2C(=O)Nc2ccc(F)c(S(C)(=N)=O)c2)CC(F)(F)C1", "note": "(single isomer, unassigned) [Example 126b, 1-((3,3-Difluoro-1-methylcyclobutyl)methyl)-N-(4-fluoro-3-(S-methylsulfonimidoyl)phenyl)-3-(1-fluorocyclopropyl)-4-(trifluoromethyl)-1H-pyrazole-5-carboxamide]", "values": [{"measurement": "IC50", "value": "≤ 100", "unit": "nM"}]}, {"smiles": "CC1(Cn2nc(C3(C#N)CC3)c(C(F)(F)F)c2C(=O)Nc2ccnc(S(C)(=N)=O)c2)CC(F)(F)C1", "note": "(single isomer, unassigned) [Example 68b, 3-(1-cyanocyclopropyl)-1-((3,3-difluoro-1-methylcyclobutyl)methyl)-N-(2-(S-methylsulfonimidoyl)pyridin-4-yl)-4-(trifluoromethyl)-1H-pyrazole-5-carboxamide]", "values": [{"measurement": "IC50", "value": "≤ 100", "unit": "nM"}]}, {"smiles": "CC1(Cn2nc(C3CC34CC4)c(C(F)(F)F)c2C(=O)Nc2ccnc(S(C)(=N)=O)c2)CC(F)(F)C1", "note": "(single isomer, unassigned) [Example 64b, 1-((3,3-difluoro-1-methylcyclobutyl)methyl)-N-(2-(S-methylsulfonimidoyl)pyridin-4-yl)-3-(spiro[2.2]pentan-1-yl)-4-(trifluoromethyl)-1H-pyrazole-5-carboxamide]", "values": [{"measurement": "IC50", "value": "≤ 100", "unit": "nM"}]}, {"smiles": "CS(=N)(=O)c1cc(NC(=O)c2c(C(F)(F)F)c(C3CC3)nn2CC2(F)CC3(CCC3)C2)ccn1", "note": "(single isomer, unassigned) [Example 21b, 3-cyclopropyl-1-((2-fluorospiro[3.3]heptan-2-yl)methyl)-N-(2-(S-methylsulfonimidoyl)pyridin-4-yl)-4-(trifluoromethyl)-1H-pyrazole-5-carboxamide]", "values": [{"measurement": "IC50", "value": "≤ 100", "unit": "nM"}]}, {"smiles": "CS(=N)(=O)c1cc(NC(=O)c2c(C(F)(F)F)c(C34CC(C3)C4)nn2CC2C[C@@H]2C(F)(F)F)ccn1", "note": "(stereo partly shown) [Example 147]", "values": [{"measurement": "IC50", "value": "≤ 100", "unit": "nM"}]}, {"smiles": "CC1(Cn2nc(C3(F)CC3)c(C(F)(F)F)c2C(=O)Nc2cccc(S(C)(=O)=NC(=O)C3COC3)c2)CC(F)(F)C1", "note": "(single isomer, unassigned) [Example 150a, 1-((3,3-Difluoro-1-methylcyclobutyl)methyl)-3-(1-fluorocyclopropyl)-N-(3-(S-methyl-N-(oxetane-3-carbonyl)sulfonimidoyl)phenyl)-4-(trifluoromethyl)-1H-pyrazole-5-carboxamide]", "values": [{"measurement": "IC50", "value": "≤ 100", "unit": "nM"}]}, {"smiles": "CS(=N)(=O)c1cc(NC(=O)c2c(C(F)(F)F)c(C3CC3)nn2CC23CC(F)(C2)C3)ccn1", "note": "(single isomer, unassigned) [Example 25b, 3-cyclopropyl-1-((3-fluorobicyclo[1.1.1]pentan-1-yl)methyl)-N-(2-(S-methylsulfonimidoyl)pyridin-4-yl)-4-(trifluoromethyl)-1H-pyrazole-5-carboxamide]", "values": [{"measurement": "IC50", "value": "100 to 1000", "unit": "nM"}]}, {"smiles": "CC1(Cn2nc(C3(F)CC3)c(C(F)(F)F)c2C(=O)Nc2cccc(S(C)(=N)=O)c2)CC(F)(F)C1", "note": "(single isomer, unassigned) [Example 109a, 1-((3,3-Difluoro-1-methylcyclobutyl)methyl)-3-(1-fluorocyclopropyl)-N-(3-(S-methylsulfonimidoyl)phenyl)-4-(trifluoromethyl)-1H-pyrazole-5-carboxamide]", "values": [{"measurement": "IC50", "value": "≤ 100", "unit": "nM"}]}, {"smiles": "CC1(Cn2nc(C3CC3)c(C(F)(F)F)c2C(=O)Nc2ccnc(S(C)(=O)=NC[C@@H](O)CO)c2)CC(F)(F)C1", "note": "(stereo partly drawn) [Example 152, 3-Cyclopropyl-1-((3,3-difluoro-1-methylcyclobutyl)methyl)-N-(2-(N—((R)-2,3-dihydroxypropyl)-S-methylsulfonimidoyl)pyridin-4-yl)-4-(trifluoromethyl)-1H-pyrazole-5-carboxamide]", "values": [{"measurement": "IC50", "value": "≤ 100", "unit": "nM"}]}, {"smiles": "CS(=N)(=O)c1cc(NC(=O)c2c(C(F)(F)F)c(C3CC3)nn2C[C@H]2CCC(F)(F)C2)ccn1", "note": "(single isomer, unassigned) [Example 17a]", "values": [{"measurement": "IC50", "value": "≤ 100", "unit": "nM"}]}, {"smiles": "CC1(Cn2nc(C(C)(F)F)c(C(F)(F)F)c2C(=O)Nc2ccnc(S(C)(=N)=O)c2)CC(F)(F)C1", "note": "(single isomer, unassigned) [Example 75a, 1-((3,3-difluoro-1-methylcyclobutyl)methyl)-3-(1,1-difluoroethyl)-N-(2-(S-methylsulfonimidoyl)pyridin-4-yl)-4-(trifluoromethyl)-1H-pyrazole-5-carboxamide]", "values": [{"measurement": "IC50", "value": "≤ 100", "unit": "nM"}]}, {"smiles": "CC1(Cn2nc(C34CC(C3)C4)c(C(F)(F)F)c2C(=O)Nc2ccnc(S(C)(=N)=O)c2)CC(F)(F)C1", "note": "(single isomer, unassigned) [Example 58b, 3-(Bicyclo[1.1.1]pentan-1-yl)-1-((3,3-difluoro-1-methylcyclobutyl)methyl)-N-(2-(S-methylsulfonimidoyl)pyridin-4-yl)-4-(trifluoromethyl)-1H-pyrazole-5-carboxamide]", "values": [{"measurement": "IC50", "value": "≤ 100", "unit": "nM"}]}, {"smiles": "CC1(Cn2nc(C3(F)CC3)c(C(F)(F)F)c2C(=O)Nc2cccc(S(=N)(=O)C(F)F)c2)CC(F)(F)C1", "note": "(single isomer, unassigned) [Example 130a, 1-((3,3-Difluoro-1-methylcyclobutyl)methyl)-N-(3-(S-(difluoromethyl)sulfonimidoyl)phenyl)-3-(1-fluorocyclopropyl)-4-(trifluoromethyl)-1H-pyrazole-5-carboxamide]", "values": [{"measurement": "IC50", "value": "≤ 100", "unit": "nM"}]}, {"smiles": "CS(=N)(=O)c1cc(NC(=O)c2c(C(F)(F)F)c(C3CC3)nn2CC2C(F)(F)C23CCC3)ccn1", "note": "(single isomer, unassigned) [Example 136a, 3-Cyclopropyl-1-((2,2-difluorospiro[2.3]hexan-1-yl)methyl)-N-(2-(S-methylsulfonimidoyl)pyridin-4-yl)-4-(trifluoromethyl)-1H-pyrazole-5-carboxamide]", "values": [{"measurement": "IC50", "value": "≤ 100", "unit": "nM"}]}, {"smiles": "CS(=N)(=O)c1cc(NC(=O)c2c(C(F)(F)F)c(C3CC3)nn2CC23CCC(F)(CC2)C3)ccn1", "note": "(single isomer, unassigned) [Example 106a, 3-cyclopropyl-1-((4-fluorobicyclo[2.2.1]heptan-1-yl)methyl)-N-(2-(S-methylsulfonimidoyl)pyridin-4-yl)-4-(trifluoromethyl)-1H-pyrazole-5-carboxamide]", "values": [{"measurement": "IC50", "value": "≤ 100", "unit": "nM"}]}, {"smiles": "CC1(Cn2nc(C3CCC3)c(C(F)(F)F)c2C(=O)Nc2ccnc(S(C)(=N)=O)c2)CC(F)(F)C1", "note": "(single isomer, unassigned) [Example 56b, 3-cyclobutyl-1-((3,3-difluoro-1-methylcyclobutyl)methyl)-N-(2-(S-methylsulfonimidoyl)pyridin-4-yl)-4-(trifluoromethyl)-1H-pyrazole-5-carboxamide]", "values": [{"measurement": "IC50", "value": "≤ 100", "unit": "nM"}]}, {"smiles": "CC1(Cn2nc(C34CC(F)(C3)C4)c(C(F)(F)F)c2C(=O)Nc2ccc(F)c(S(C)(=N)=O)c2)CC(F)(F)C1", "note": "(single isomer, unassigned) [Example 141a, 1-((3,3-Difluoro-1-methylcyclobutyl)methyl)-N-(4-fluoro-3-(S-methylsulfonimidoyl)phenyl)-3-(3-fluorobicyclo[1.1.1]pentan-1-yl)-4-(trifluoromethyl)-1H-pyrazole-5-carboxamide]", "values": [{"measurement": "IC50", "value": "≤ 100", "unit": "nM"}]}, {"smiles": "C[C@H]1C[C@@H]1c1nn(CC2(C)CC(F)(F)C2)c(C(=O)Nc2ccnc([S@@](C)(=N)=O)c2)c1C(F)(F)F", "note": "(single isomer, unassigned) [Example 65b, 1-((3,3-Difluoro-1-methylcyclobutyl)methyl)-3-((trans)-2-methylcyclopropyl)-N-(2-(S-methylsulfonimidoyl)pyridin-4-yl)-4-(trifluoromethyl)-1H-pyrazole-5-carboxamide]", "values": [{"measurement": "IC50", "value": "≤ 100", "unit": "nM"}]}, {"smiles": "CC1(Cn2nc(C34CC(F)(C3)C4)c(C(F)(F)F)c2C(=O)Nc2ccnc(S(C)(=N)=O)c2)CC(F)(F)C1", "note": "(single isomer, unassigned) [Example 110a, 1-((3,3-Difluoro-1-methylcyclobutyl)methyl)-3-(3-fluorobicyclo[1.1.1]pentan-1-yl)-N-(2-(S-methylsulfonimidoyl)pyridin-4-yl)-4-(trifluoromethyl)-1H-pyrazole-5-carboxamide]", "values": [{"measurement": "IC50", "value": "≤ 100", "unit": "nM"}]}, {"smiles": "CC1(Cn2nc(C(C)(C)C)c(C(F)(F)F)c2C(=O)Nc2ccnc(S(C)(=N)=O)c2)CC(F)(F)C1", "note": "(single isomer, unassigned) [Example 143a, 3-(Tert-butyl)-1-((3,3-difluoro-1-methylcyclobutyl)methyl)-N-(2-(S-methylsulfonimidoyl)pyridin-4-yl)-4-(trifluoromethyl)-1H-pyrazole-5-carboxamide]", "values": [{"measurement": "IC50", "value": "≤ 100", "unit": "nM"}]}, {"smiles": "CC(=O)N1CC2(CCC2Cn2nc(C3CC3)c(C(F)(F)F)c2C(=O)Nc2ccnc(S(C)(=N)=O)c2)C1", "note": "(single isomer, unassigned) [Example 140a, 1-((2-Acetyl-2-azaspiro[3.3]heptan-5-yl)methyl)-3-cyclopropyl-N-(2-(S-methylsulfonimidoyl)pyridin-4-yl)-4-(trifluoromethyl)-1H-pyrazole-5-carboxamide]", "values": [{"measurement": "IC50", "value": "100 to 1000", "unit": "nM"}]}, {"smiles": "CS(=N)(=O)c1cc(NC(=O)c2c(C(F)(F)F)c(OC(F)F)nn2CC2CCC(F)(F)C2)ccn1", "note": "(stereo not shown) [Example 33, 1-((3,3-Difluorocyclopentyl)methyl)-3-(difluoromethoxy)-N-(2-(S-methylsulfonimidoyl)pyridin-4-yl)-4-(trifluoromethyl)-1H-pyrazole-5-carboxamide]", "values": [{"measurement": "IC50", "value": "≤ 100", "unit": "nM"}]}]}
